# Earlier results in patent US8394592B2, “Methods for assessing cancer susceptibility to carcinogens in tobacco products” (The Board of Regents of the University of Texas System, priority 2006, dated 2013).
# System: rats
# Conditions: cited from earlier work
smiles,measurement,value
"CN(CCCC(=O)c1cccnc1)N=O [NNK, 4-(methylnitrosamino)-1-(3-pyridyl)-1-butanone]",lowest dose shown to induce lung tumors,1.8 mg
